Earlier results on one molecule are cited in US20250120988A1, “SMALL MOLECULE COMPOUND FOR TREATING ISCHEMIC STROKE, ITS PREPARATION METHOD, AND APPLICATION” (SHANGHAI SIXTH PEOPLE'S HOSPITAL, priority 2023, published 2025).

For data set [1] the following is noted: cited from earlier work.
The subject of the next data set is NMDARs. The following applies: competitive antagonist of NMDARs; read-out: half-blocking dose (IC50) on NMDARs; cited from earlier work.
The test system of the next data set is ischemic stroke patients. To be noted: clinical trials; cited from earlier work.

In the case of `O=C(O)[C@@H]1C[C@H](CP(=O)(O)O)CCN1` (racemic) [Selfotel], the solubility in water entry in data set [1] is listed as “highly soluble in water”. In addition, the IC50 with NMDARs is less than 1000 nM. Further, in the data set on ischemic stroke patients, the “patient mortality compared to the control group” value is “did not significantly reduce patient mortality” and the “psychiatric symptoms in patients” value is given as “led to various psychiatric symptoms in patients”.
